The text below walks through data of patent publication US9273057B2 (Bristol-Myers Squibb Company, priority 2012, dated 2016).

Chain of CK2A1 (CK2α/β) (P68400 whole entry, species assumed): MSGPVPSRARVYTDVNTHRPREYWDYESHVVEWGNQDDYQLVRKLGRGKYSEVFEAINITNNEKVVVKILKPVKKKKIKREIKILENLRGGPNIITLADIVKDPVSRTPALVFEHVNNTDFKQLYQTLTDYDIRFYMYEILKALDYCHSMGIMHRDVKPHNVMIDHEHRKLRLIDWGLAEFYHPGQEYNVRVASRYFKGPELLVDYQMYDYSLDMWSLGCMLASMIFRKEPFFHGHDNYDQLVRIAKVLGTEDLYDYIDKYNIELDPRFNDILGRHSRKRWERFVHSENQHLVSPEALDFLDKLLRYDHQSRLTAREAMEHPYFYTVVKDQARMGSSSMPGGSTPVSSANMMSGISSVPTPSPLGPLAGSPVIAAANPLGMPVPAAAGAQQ
Chain of CK2A1 (CK2α/β) (P67870 whole entry partner, species assumed): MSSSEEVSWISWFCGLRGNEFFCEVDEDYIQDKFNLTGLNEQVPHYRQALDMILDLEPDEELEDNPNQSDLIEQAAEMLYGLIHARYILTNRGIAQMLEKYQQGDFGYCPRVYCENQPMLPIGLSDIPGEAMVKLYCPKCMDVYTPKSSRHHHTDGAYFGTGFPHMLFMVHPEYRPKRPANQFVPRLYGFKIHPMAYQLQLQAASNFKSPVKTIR

The experiment concerns the target CK2A1 (CK2α/β) (Homo sapiens, UniProt P68400). Description: CK2 kinase assay, CK2A1 (CK2α/β). In kind it is biochemical. As to conditions: Table A; read-out: CK2A1 (CK2α/β) (IC50).
On to `N#Cc1cc(Nc2nc(NC3CC3)c3ncc(C#N)n3n2)c(Cl)c(C2CCNCC2)c1` [Example 208, 2-((2-chloro-5-cyano-3-(piperidin-4-yl)phenyl)amino)-4-(cyclopropylamino)imidazo[2,1-f][1,2,4]triazine-7-carbonitrile], for which the IC50 is 0.57 nM.

Regarding `CN1CCC(c2cc(C#N)cc(Nc3nc(NC4CC4)c4ncc(C#N)n4n3)c2Cl)CC1` [Example 209, 2-(2-chloro-5-cyano-3-(1-methylpiperidin-4-yl)phenylamino)-4-(cyclopropylamino)imidazo[1,2,f][1,2,4]triazine-7-carbonitrile], the IC50 came to 0.56 nM.

Regarding `N#Cc1cc(Nc2nc(NC3CC3)c3ncc(C#N)n3n2)c(Cl)c(C2CCN(C3COC3)CC2)c1` [Example 210, 2-((2-chloro-5-cyano-3-(1-(3-oxetanyl)-4-piperidinyl)phenyl)amino)-4-(cyclopropylamino)imidazo[2,1-f][1,2,4]triazine-7-carbonitrile], the IC50 is 0.71 nM.

As to `COCCN1CCC(c2cc(C#N)cc(Nc3nc(NC4CC4)c4ncc(C#N)n4n3)c2Cl)CC1` [Example 211, 2-(2-chloro-5-cyano-3-(1-(2-methoxyethyl)piperidin-4-yl)phenylamino)-4-(cyclopropylamino)imidazo[1,2-f][1,2,4]triazine-7-carbonitrile], the IC50 is 0.9 nM.

Turning to `N#Cc1cc(Nc2nc(NC3CC3)c3ncc(C#N)n3n2)c(Cl)c(C2CCN(CC(F)F)CC2)c1` [Example 212, 2-(2-chloro-5-cyano-3-(1-(2,2-difluoroethyl)piperidin-4-yl)phenylamino)-4-(cyclopropylamino)imidazo[1,2-f][1,2,4]triazine-7-carbonitrile], the IC50 was 0.78 nM.

In the case of `N#Cc1cc(Nc2nc(NC3CC3)c3ncc(C#N)n3n2)c(Cl)c(C2CCN(C3CCN(C4CC4)CC3)CC2)c1` [Example 213, 2-(2-chloro-5-cyano-3-(1′-cyclopropyl-1,4′-bipiperidin-4-yl)phenylamino)-4-(cyclopropylamino)imidazo[1,2-f][1,2,4]triazine-7-carbonitrile], the IC50 worked out at 4 nM.

`CCNc1nc(Nc2cc(C#N)cc(C3CCN(C[C@H](C)O)CC3)c2Cl)nn2c(C#N)cnc12` [Example 214, 2-((2-chloro-5-cyano-3-(1-((2S)-2-hydroxypropyl)-4-piperidinyl)phenyl)amino)-4-(ethylamino)imidazo[2,1-f][1,2,4]triazine-7-carbonitrile]: the IC50 was 4.55 nM.

Turning to `N#Cc1cc(Nc2nc(NC3CC3)c3ncc(C#N)n3n2)c(Cl)c(C2CCN(CC3CC3)CC2)c1` [Example 215, 2-((2-chloro-5-cyano-3-(1-(cyclopropylmethyl)-4-piperidinyl)phenyl)amino)-4-(cyclopropylamino)imidazo[2,1-f][1,2,4]triazine-7-carbonitrile], the IC50 was 0.62 nM.

With `C[C@H](O)CN1CCC(c2cc(C#N)cc(Nc3nc(NC4CC4)c4ncc(C#N)n4n3)c2Cl)CC1` [Example 216, (S)-2-(2-chloro-5-cyano-3-(1-(2-hydroxypropyl)piperidin-4-yl)phenylamino)-4-(cyclopropylamino)imidazo[1,2-f][1,2,4]triazine-7-carbonitrile], the IC50 is 1.02 nM.

As for `N#Cc1cc(Nc2nc(NC3CC3)c3ncc(C#N)n3n2)c(Cl)c(C2CCN(C3CC[C@@H](N)[C@H](O)C3)CC2)c1` (stereo partly drawn) [Example 217, 2-((3-(1-((3R,4R)-4-amino-3-hydroxycyclohexyl)-4-piperidinyl)-2-chloro-5-cyanophenyl)amino)-4-(cyclopropylamino)imidazo[2,1-f][1,2,4]triazine-7-carbonitrile], the IC50 worked out at 0.6 nM.

For the compound `CC(C)(O)CN1CCC(c2cc(C#N)cc(Nc3nc(NC4CC4)c4ncc(C#N)n4n3)c2Cl)CC1` [Example 219, 2-((2-chloro-5-cyano-3-(1-(2-hydroxy-2-methylpropyl)-4-piperidinyl)phenyl)amino)-4-(cyclopropylamino)imidazo[2,1-f][1,2,4]triazine-7-carbonitrile], the IC50 is 0.59 nM.

With `N#Cc1cc(Nc2nc(NC3CC3)c3ncc(C#N)n3n2)c(Cl)c(C2CCN(CC(N)=O)CC2)c1` [Example 220, 2-[4-(2-chloro-5-cyano-3-{[7-cyano-4-(cyclopropylamino)imidazo[2,1-f][1,2,4]triazin-2-yl]amino}phenyl)piperidin-1-yl]acetamide], the IC50 amounted to 0.7 nM.

Take `N#Cc1cc(Nc2nc(NC3CC3)c3ncc(C#N)n3n2)c(Cl)c(C2CCN(C3CC4(COC4)C3)CC2)c1` [Example 222, 2-((2-chloro-5-cyano-3-(1-(2-oxaspiro[3.3]hept-6-yl)-4-piperidinyl)phenyl)amino)-4-(cyclopropylamino)imidazo[2,1-f][1,2,4]triazine-7-carbonitrile]: the IC50 came to 1.17 nM.

Regarding `[2H]C1(N2CCC(c3cc(C#N)cc(Nc4nc(NC5CC5)c5ncc(C#N)n5n4)c3Cl)CC2)COC1` [Example 223, 2-((2-chloro-5-cyano-3-(1-(3-~2~H)-3-oxetanyl-4-piperidinyl)phenyl)amino)-4-(cyclopropylamino)imidazo[2,1-f][1,2,4]triazine-7-carbonitrile], the IC50 is 0.95 nM.

In the case of `CC1(CN2CCC(c3cc(C#N)cc(Nc4nc(NC5CC5)c5ncc(C#N)n5n4)c3Cl)CC2)COC1` [Example 225, 2-((2-chloro-5-cyano-3-(1-((3-methyl-3-oxetanyl)methyl)-4-piperidinyl)phenyl)amino)-4-(cyclopropylamino)imidazo[2,1-f][1,2,4]triazine-7-carbonitrile], the IC50 came out at 2 nM.

`COC(=O)N1CCC(c2cc(C#N)cc(Nc3nc(NC4CC4)c4ncc(C#N)n4n3)c2Cl)CC1` [Example 226, methyl 4-(2-chloro-5-cyano-3-((7-cyano-4-(cyclopropylamino)imidazo[2,1-f][1,2,4]triazin-2-yl)amino)phenyl)piperidine-1-carboxylate]: the IC50 was 0.48 nM.

For `COCC(=O)N1CCC(c2cc(C#N)cc(Nc3nc(NC4CC4)c4ncc(C#N)n4n3)c2Cl)CC1` [Example 227, 2-((2-chloro-5-cyano-3-(1-(methoxyacetyl)-4-piperidinyl)phenyl)amino)-4-(cyclopropylamino)imidazo[2,1-f][1,2,4]triazine-7-carbonitrile], the IC50 is 0.59 nM.

`CC(=O)OC(C)(C)C(=O)N1CCC(c2cc(C#N)cc(Nc3nc(NC4CC4)c4ncc(C#N)n4n3)c2Cl)CC1` [Example 228, 2-(4-(2-chloro-5-cyano-3-((7-cyano-4-(cyclopropylamino)imidazo[2,1-f][1,2,4]triazin-2-yl)amino)phenyl)-1-piperidinyl)-1,1-dimethyl-2-oxoethyl acetate]: the IC50 is 0.51 nM.

Regarding `N#CCC(=O)N1CCC(c2cc(C#N)cc(Nc3nc(NC4CC4)c4ncc(C#N)n4n3)c2Cl)CC1` [Example 230, 2-((2-chloro-5-cyano-3-(1-(cyanoacetyl)-4-piperidinyl)phenyl)amino)-4-(cyclopropylamino)imidazo[2,1-f][1,2,4]triazine-7-carbonitrile], the IC50 came out at 1.04 nM.

For `CC(C)(O)C(=O)N1CCC(c2cc(C#N)cc(Nc3nc(NC4CC4)c4ncc(C#N)n4n3)c2Cl)CC1` [Example 231, 2-((2-chloro-5-cyano-3-(1-(2-hydroxy-2-methylpropanoyl)-4-piperidinyl)phenyl)amino)-4-(cyclopropylamino)imidazo[2,1-f][1,2,4]triazine-7-carbonitrile], the IC50 came to 0.45 nM.

Regarding `N#Cc1cc(Nc2nc(NC3CC3)c3ncc(C#N)n3n2)c(Cl)c(C2CCN(C(=O)C3(O)CC3)CC2)c1` [Example 232, 2-((2-chloro-5-cyano-3-(1-((1-hydroxycyclopropyl)carbonyl)-4-piperidinyl)phenyl)amino)-4-(cyclopropylamino)imidazo[2,1-f][1,2,4]triazine-7-carbonitrile], the IC50 amounted to 0.62 nM.

`CC1(C(=O)N2CCC(c3cc(C#N)cc(Nc4nc(NC5CC5)c5ncc(C#N)n5n4)c3Cl)CC2)COC1` [Example 233, 2-((2-chloro-5-cyano-3-(1-((3-methyl-3-oxetanyl)carbonyl)-4-piperidinyl)phenyl)amino)-4-(cyclopropylamino)imidazo[2,1-f][1,2,4]triazine-7-carbonitrile]: the IC50 stood at 0.58 nM.

Take `CC(C)(C)C(=O)N1CCC(c2cc(C#N)cc(Nc3nc(NC4CC4)c4ncc(C#N)n4n3)c2Cl)CC1` [Example 234, 2-((2-chloro-5-cyano-3-(1-(2,2-dimethylpropanoyl)-4-piperidinyl)phenyl)amino)-4-(cyclopropylamino)imidazo[2,1-f][1,2,4]triazine-7-carbonitrile]: the IC50 is 1.6 nM.

On to `CC(C)(C)CC(=O)N1CCC(c2cc(C#N)cc(Nc3nc(NC4CC4)c4ncc(C#N)n4n3)c2Cl)CC1` [Example 235, 2-((2-chloro-5-cyano-3-(1-(3,3-dimethylbutanoyl)-4-piperidinyl)phenyl)amino)-4-(cyclopropylamino)imidazo[2,1-f][1,2,4]triazine-7-carbonitrile], for which the IC50 was 3.86 nM.

In the case of `N#Cc1cc(Nc2nc(NC3CC3)c3ncc(C#N)n3n2)c(Cl)c(C2CCN(C(=O)C3CC3)CC2)c1` [Example 236, 2-((2-chloro-5-cyano-3-(1-(cyclopropylcarbonyl)-4-piperidinyl)phenyl)amino)-4-(cyclopropylamino)imidazo[2,1-f][1,2,4]triazine-7-carbonitrile], the IC50 amounted to 0.78 nM.

As to `N#Cc1cc(Nc2nc(NC3CC3)c3ncc(C#N)n3n2)c(Cl)c(C2CCN(C(=O)CC(F)(F)F)CC2)c1` [Example 237, 2-((2-chloro-5-cyano-3-(1-(3,3,3-trifIuoropropanoyl)-4-piperidinyl)phenyl)amino)-4-(cyclopropylamino)imidazo[2,1-f][1,2,4]triazine-7-carbonitrile], the IC50 was determined as 0.41 nM.

Turning to `CC(C)(N)C(=O)N1CCC(c2cc(C#N)cc(Nc3nc(NC4CC4)c4ncc(C#N)n4n3)c2Cl)CC1` [Example 239, 2-((2-chloro-5-cyano-3-(1-(2-methylalanyl)-4-piperidinyl)phenyl)amino)-4-(cyclopropylamino)imidazo[2,1-f][1,2,4]triazine-7-carbonitrile], the IC50 was found to be 0.49 nM.
